# Data published in paper PMC11514443 (Structure (London, England : 1993), 2019).
# Square brackets hold non-standard residues; d marks the D form. Ends that are not written are not given here. Peptide text beside a SMILES is read from it. Lys(Me3) = C[N+](C)(C)CCCC[C@H](N)C(=O)O
# T1: MORC3-CW E431A mutant (human, UniProt Q14149 401-455, E431A)
# T1 sequence (looked up): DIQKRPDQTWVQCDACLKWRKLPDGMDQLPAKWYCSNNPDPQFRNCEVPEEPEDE
# Tests used:
# MORC3-CW E431A mutant [1] = biological target: MORC3-CW E431A mutant (Homo sapiens, UniProt Q14149, E431A); conditions: NMR and fluorescence
# [2] = tested on: CW domain with W419 mutated to alanine; experiment: binding to MORC3-CW W419A mutant
# MORC3-CW [3] = biological target: T2, MORC3-CW (Homo sapiens, UniProt Q14149); assay type: binding
# T2 sequence (Q14149 401-455): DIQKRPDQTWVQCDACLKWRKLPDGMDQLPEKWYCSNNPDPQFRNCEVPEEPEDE
# MORC3-CW [4] = biological target: T2, MORC3-CW; assay type: binding; conditions: pH 6.8
# [5] = tested on: CW domain with W410 mutated to alanine; experiment: binding to MORC3-CW W410A mutant
# [6] = biological target: MORC3 ATPase domain ATPase (Homo sapiens) (UniProt Q14149); conditions: cited from earlier work
# Chain of MORC3 ATPase domain ATPase (Homo sapiens) (Q14149 1-400): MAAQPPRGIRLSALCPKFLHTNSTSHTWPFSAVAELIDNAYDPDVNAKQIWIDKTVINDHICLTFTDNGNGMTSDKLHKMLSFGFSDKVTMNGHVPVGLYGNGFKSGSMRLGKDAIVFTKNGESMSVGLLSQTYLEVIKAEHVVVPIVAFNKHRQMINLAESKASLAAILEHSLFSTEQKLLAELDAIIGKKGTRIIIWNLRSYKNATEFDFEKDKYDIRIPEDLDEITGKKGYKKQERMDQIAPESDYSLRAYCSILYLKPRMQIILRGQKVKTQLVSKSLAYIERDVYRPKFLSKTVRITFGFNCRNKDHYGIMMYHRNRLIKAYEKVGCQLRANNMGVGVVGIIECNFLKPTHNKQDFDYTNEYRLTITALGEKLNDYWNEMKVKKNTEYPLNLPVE
# [7] = biological target: CW domain of human MORC3 (aa 401-455) (human) (UniProt Q14149); experiment: other fluorescence titration
# MORC3-CW E431A mutant [8] = biological target: T1, MORC3-CW E431A mutant; experiment: other fluorescence titration
# Chain of MORC3 CW (Q14149 404-454): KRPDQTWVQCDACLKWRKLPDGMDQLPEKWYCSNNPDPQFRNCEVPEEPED
molecule,measurement,setting,value
CSCC[C@H](N)C(=O)N[C@@H](C)C(=O)N[C@@H](CCCNC(=N)N)C(=O)N[C@H](C(=O)N[C@@H](C)C(=O)N[C@@H](CCCNC(=N)N)C(=O)N[C@@H](CO)C(=O)N[C@@H](CCCC[N+](C)(C)C)C(=O)N[C@H](C(=O)O)C(C)C)[C@@H](C)O [NS1K229me3] (H-MARTARS[Lys(Me3)]V-OH; N-terminus and C-terminus assumed),binding to E431A mutant,MORC3-CW E431A mutant [1],capable of binding
same,binding to W419A mutant,[2],abrogated binding
same,fold increase in binding affinity vs unmodified NS1 peptide,MORC3-CW [3],~ 11 fold
same,chemical shift perturbations (CSPs) in MORC3-CW,MORC3-CW [4],large chemical shift perturbations (CSPs)
same,binding to W410A mutant,[5],abrogated binding
MORC3 CW (from UniProt Q14149),Kd,[6],9 µM
NS1 peptide trimethylated at K229 (residues 222-230 of NS1),Kd,[7],14 µM
unmodified NS1 peptide (residues 222-230 of NS1),Kd,[7],157 µM
"ARTK(Me3)QTARKSTG (peptide, UniProt P68431 2-13, looked up) [histone H3 peptide trimethylated at lysine 4 (residues 1-12)]",Kd,MORC3-CW E431A mutant [8],600 nM
